pEC50: −log10 of the molar value.
Columns and labels:
[1] = biological target: T1, pS129-positive αSyn inclusions (Mus musculus, UniProt O55042); assay: Immunofluorescence staining and colocalization, αSyn PFF-injected mouse brain; conditions: for M1, fraction of A overlapping B / M2, fraction of B overlapping A: Manders' coefficient, αSyn PFF injected mouse, antibody (A) pS129, ligand (B); for Colocalization of ligand with pS129 signal: αSyn-PFF-injected mice, 12 weeks after injection, PPN, periaqueductal gray, SNc, nucleus accumbens
T1 construct: from tissue; host or cells: brain of αSyn PFF-injected C57BL/6J mice

[2] = biological target: T2, tau inclusions (AT-8/AT-100 positive) (Homo sapiens, UniProt P10636, P618L); assay: Immunofluorescence staining and colocalization, pR5 mouse brain; conditions: for M1, fraction of A overlapping B / M2, fraction of B overlapping A: Manders' coefficient, pR5 mouse
T2 construct: from tissue; host or cells: brain (cortex, hippocampus) of pR5 transgenic mice
T2 sequence (P10636 1-441 isoform P10636-8 P301L): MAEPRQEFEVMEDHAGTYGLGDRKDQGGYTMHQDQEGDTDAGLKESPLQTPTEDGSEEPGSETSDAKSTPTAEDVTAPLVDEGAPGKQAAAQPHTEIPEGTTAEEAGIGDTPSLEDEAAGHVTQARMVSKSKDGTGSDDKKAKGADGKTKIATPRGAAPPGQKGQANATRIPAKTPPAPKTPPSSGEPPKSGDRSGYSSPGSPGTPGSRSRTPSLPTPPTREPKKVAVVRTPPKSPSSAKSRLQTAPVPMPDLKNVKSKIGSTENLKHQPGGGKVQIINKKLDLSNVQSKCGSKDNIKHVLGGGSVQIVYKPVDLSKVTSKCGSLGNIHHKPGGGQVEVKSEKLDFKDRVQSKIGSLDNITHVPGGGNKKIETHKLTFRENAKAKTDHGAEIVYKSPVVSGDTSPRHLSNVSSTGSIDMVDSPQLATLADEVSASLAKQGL

[3] = biological target: T3, pS129-positive αSyn inclusions (Homo sapiens, UniProt P37840); assay: Immunofluorescence staining and colocalization, PD patient brain slices; conditions: for M1, fraction of A overlapping B / M2, fraction of B overlapping A: Manders' coefficient, sample PD, antibody (A) pS129, ligand (B); for Ligand detection of αSyn inclusions: medulla oblongata tissue slices from two PD patients, costained with pS129 antibody
T3 construct: tissue Netherlands Brain Bank; host or cells: postmortem PD brain, medulla oblongata
From the text: Two PD patients, each with a clinical diagnosis confirmed by pathological examination of Lewy bodies (Braak LB 6, without tau and Aβ), were included in this study (detailed information in Table 1). Paraffin-embedded autopsied brain tissues from the medulla oblongata and cerebellum with high αSyn inclusion accumulation were obtained from the Netherlands Brain Bank (NBB), Netherlands (Table 2).
The details on the antibodies and ligand concentrations are described in STable 1. 2. Human paraffin-embedded brain sections (3 µm) were deparaffinized and rehydrated prior to antigen retrieval step (citrate buffer pH 6.0) in a microwave for 20 min at 98 °C. The sections were then costained with anti-αSyn (phospho-S129, pS129) antibody plus fluorescent secondary antibody. Ligands were incubated after secondary antibody incubation for 30 min. Sections were counterstained using 4’,6-diamidino-2-phenylindole (DAPI). Mouse brains were embedded in tissue freezing media (OCT Compound, Tissue Tek, USA) and cut into 30–40 μm thick consecutive coronal sections using a cryostat microtome (CM3050 S, Leica, Germany). All sections spanning the complete rostrocaudal extent of the brain were kept in the correct order and stored at 4 °C in cryoprotect solution (1:1:3 volume ratio of ethylenglycol, glycerol and 0.1 M PBS) until further processing. Anti-αSyn pS129 antibodies, anti-phospho-tau antibodies (AT-8, AT-100), or anti-Aβ1-16 antibody 6E10 plus fluorescent secondary antibody were used as previously described on brain slices from αSyn PFF-injected mice, arcAβ mice, and pR5 mice. Ligands were incubated with secondary antibody for 30 min. Sections were counterstained with DAPI. The brain sections were imaged at 20 × magnification using an Axio Observer Z1 microscope (whole brain slide scanner) and at 63 × magnification using a Leica SP8 confocal microscope (Leica, Germany) for colocalization. It took approximately 1–1.5 h to acquire the tilted human brain slices by a slide scanner in our experiment (20 ×). The time varied depending on the size of the sample. Lambda scans were performed using a Leica SP8 confocal microscope for the emission spectrum of the ligands on the staining as previously described to validate the signal. The images were analyzed using Qupath and Fiji (NIH, U.S.A.). Colocalization analysis of the confocal microscopy images (probe and antibody channels) was performed by using Fiji, and Manders' coefficients (M1, M2) were computed.

[4] = biological target: recombinant K18 tau fibrils (Homo sapiens, UniProt P10636); assay: Fluorescence assay of ligands with K18 tau fibrils; format: binding; design: made in house; host or cells: E. coli; conditions: ligand bound to K18 tau fibrils; emission peaks
recombinant K18 tau fibrils, sequence (P10636 561-685 limits assumed): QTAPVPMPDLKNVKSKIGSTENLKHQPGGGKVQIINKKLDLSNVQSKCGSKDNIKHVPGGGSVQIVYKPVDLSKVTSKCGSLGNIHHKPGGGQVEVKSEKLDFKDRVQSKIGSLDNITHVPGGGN
From the text: (§1) Recombinant Aβ42, K18-tau, full-length 2N4R tau (441 aa) and αSyn were expressed and measured for binding with fluorescent ligands as described previously (details in the supplementary material).
(§2) Recombinant Aβ42, K18 tau, full-length 2N4R tau (441 aa) and αSyn were expressed and produced by E. coli as described previously. As a substrate for HRP, Pierce ECL and Western blotting substrate (Thermo Fisher Scientific, U.S.A.) were used to detect Aβ42 and αSyn. To detect K18 tau, ECL Prime Western blotting detection reagents (Cytiva, U.S.A.) were used. Images of the resulting blots were taken with an ImageQuant LAS 4000 (GE Healthcare). […] For Aβ42, the quantity was 3.7 μg because of a higher dilution. […] K18 tau was detected using a monoclonal tau antibody (anti-tau 4-repeat isoform RD4, clone 1E1/A6). Aβ42 was detected with a monoclonal Aβ antibody (clone BAM-10), and αSyn was detected using a monoclonal αSyn antibody (clone Syn211). […] After incubation of the protein solutions, fibrillization was verified by thioflavin T fluorescence assay: 45 μL of thioflavin T (5 μM, Sigma Aldrich, U.S.A.) was mixed with either 2 μL of the incubated αSyn, 5 μL of K18 tau, full-length 2N4R tau or 5 μL of Aβ42 in a 45 µL quartz cuvette (quartz […] Ultra-Micro Cell, Hellma GmbH, Germany).

[5] = biological target: T4, recombinant αSyn fibrils (Homo sapiens, UniProt P37840); assay: Fluorescence assay of ligands with αSYN fibrils; format: binding; conditions: ligand bound to αSYN fibrils; emission peaks
T4 construct: made in house; host or cells: E. coli
From the text: as §1, §2

[6] = biological target: T5, recombinant Aβ42 fibrils (Homo sapiens, UniProt P05067); assay: Fluorescence assay of ligands with Aβ42 fibrils; format: binding; conditions: ligand bound to Aβ42 fibrils; emission peaks
T5 construct: Recombinant Aβ42, K18-tau, full-length 2N4R tau (441 aa) and αSyn were expressed; made in house; host or cells: E. coli
T5 sequence (P05067 672-713 limits assumed): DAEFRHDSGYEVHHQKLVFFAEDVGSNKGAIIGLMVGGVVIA
From the text: as §1, §2

[7] = biological target: T4, recombinant αSyn fibrils; assay: SPR binding kinetics on immobilized αSyn fibrils; conditions: surface CMD200M, surface density 2940-3400 RU, sum2exp model, two components (lines) per analyte; for kon: read-out: ka, rate constant of association
[8] = biological target: T6, recombinant full-length 2N4R tau fibrils (Homo sapiens, UniProt P10636); assay: SPR binding kinetics on immobilized full-length 2N4R tau fibrils; conditions: surface ZC150D, surface density 2900 RU, sum2exp model, two components per analyte
T6 construct: full-length 2N4R tau (441 aa); made in house; host or cells: E. coli
T6 sequence (P10636 1-441 isoform P10636-8): as the sequence (P10636 1-441 isoform P10636-8 P301L) above, with L301P counted along it
Method: [The source words this procedure for another variant and reports this variant under the same test.] (§3) SPR measurements were conducted in HEPES-buffered saline (HBS, Teknova, USA) buffer at 20 °C using Biacore instruments T200 and S200 (Cytiva, Uppsala, Sweden). Aβ42, tau, and αSyn recombinant fibrils were immobilized in the flow cell of sensor chips produced by Xantec (Düsseldorf, Germany) and Cytiva by coupling fibril amine groups to sulfo-N-hydroxysuccinimide (sulfo-NHS)-activated carboxylic acid groups on the chip surface. Since no nonbinding fibril(s) were available, the reference flow cell remained empty. […]
(§4) The immobilized fibrils were stable for a few days. Kinetic constants for binding were determined by injection of a dilution series of 5–8 concentrations of ligand in HBS buffer at a flow rate of 30 µL/minute in duplicate ("full kinetics").
(§5) The data was evaluated using BiaEvaluate v2.03 software (Cytiva, Sweden). Binding kinetics were analyzed globally using different kinetic models, including 1 + 1, a sum of two exponentials model ("heterogeneous ligand" in terms of BiaEvaluate, sum2exp), and a sum of three exponentials model (sum3exp) that was created using the script editor of the software.

[9] = biological target: T5, recombinant Aβ42 fibrils; assay: SPR binding kinetics on immobilized Aβ42 fibrils; conditions: surface ZC150D, surface density 1770 RU, sum2exp model, two components per analyte
Method: as §3, §4, §5

[10] = biological target: T5, recombinant Aβ42 fibrils; design: method as in PMID 27767229; conditions: read-out: EC50, competition with [^3H]X-34; cited from earlier work
[11] = antibody (A) AT-100, ligand (B)

M1, fraction of A overlapping B [1] | M2, fraction of B overlapping A [1] | Colocalization of ligand with pS129 signal [1] | M1, fraction of A overlapping B ([2]; antibody (A) AT-8, ligand (B)) | M2, fraction of B overlapping A ([2]; antibody (A) AT-8, ligand (B)) | M1, fraction of A overlapping B [3] | M2, fraction of B overlapping A [3] | Ligand detection of αSyn inclusions [3] | Emission wavelength [4] | Emission wavelength [5] | Emission wavelength [6] | ka, rate constant of association [7] | kon [7] | M1, fraction of A overlapping B [2, 11] | M2, fraction of B overlapping A [2, 11] | SMILES | ka, rate constant of association [8] | ka, rate constant of association [9] | Ligand detection of tau inclusions ([2]; pR5 mice, cortex and hippocampus, costained with AT-8) | pEC50 [10]
0.839 | 0.838 | Colocalization | – | – | – | – | – | – | – | – | – | – | – | – | O=C(O)Cc1cc(-c2ccc(-c3cc(CC(=O)O)c(-c4ccc(C(=O)O)s4)s3)s2)sc1-c1ccc(C(=O)O)s1 [HS-84] | – | – | – | –
0.673 | 0.84 | Colocalization | 0.164 | 0.279 | 0.81 | 0.866 | bound to pS129-positive αSyn inclusions | 640 nm | 643 nm | 650 nm | 1.45E + 05 M^−1 s^−1 | 288000 M⁻¹ s⁻¹ | – | – | O=C(O)Cc1cc(-c2ccc(-c3cc(CC(=O)O)c(-c4ccc(C(=O)O)s4)s3)c3nsnc23)sc1-c1ccc(C(=O)O)s1 [HS-169] | – | – | – | –
– | – | – | – | – | – | – | – | – | – | – | – | – | – | – | Cc1c(OCC(F)(F)F)ccnc1C[S+]([O-])c1nc2ccccc2[nH]1 (stereo not drawn) [Lan, lansoprazole] | lower than 10^3 M^−1 s^−1 | lower than 10^3 M^−1 s^−1 | – | –
– | – | – | 0.39 | 0.09 | – | – | – | 688 nm | 690 nm | 695 nm | – | – | 0.024 | 0.018 | CC[n+]1c(/C=C/C=C/c2ccc(N(C)C)cc2)sc2ccccc21 [PBB5] | – | – | confirmed the presence of PBB5 in tau inclusions | –
– | – | – | 0.215 | 0.07 | 0.404 | 0.4 | bound to pS129-positive αSyn inclusions | – | – | – | 111000 M⁻¹ s⁻¹ | 162000 M⁻¹ s⁻¹ | 0.459 | 0.16 | O=C(O)Cc1cc(-c2ccc(-c3ccc(C(=O)O)s3)s2)sc1-c1ccc(-c2sc(-c3ccc(-c4ccc(C(=O)O)s4)s3)cc2CC(=O)O)s1 [h-FTAA, Hepta-formylthiophene acetic acid] | – | – | – | ~6.60

— paper PMC11527973, “Efficient characterization of multiple binding sites of small molecule imaging ligands on amyloid-beta, tau and alpha-synuclein” (European Journal of Nuclear Medicine and Molecular Imaging, 2024)
